From patent publication US8642585B2, “Indanyloxydihydrobenzofuranylacetic acids” (Boehringer Ingelheim International GmbH, priority 2012, dated 2014) come the findings set out here.

Molecules are shown by their SMILES.

The assay deals with human GPR40 receptor (Homo sapiens, UniProt O14842). Put plainly: Assay II: IP1 accumulation (IPOne HTRF) in 1321N1 cells stably expressing human GPR40. Particulars: 1321N1 cells expressing human GPR40, stimulation 1 h at 37° C., 5% CO2, LiCl 50 mM. Type of assay: cell-based. On the procedure:
IP1 accumulation measurements using the IPOne assay system—1321N1 cells stably expressing human GPR40 receptor (Euroscreen, Belgium) are seeded 24 h before the assay in white 384-well plates in culture medium containing 10% FCS, 1% Na-Pyruvate and 400 μg/mL G418. IP1 is assayed according to the manufacturers description (Cisbio Bioassays, France). In brief, the assay is started by substitution of the culture medium by stimulation buffer (Hepes 10 mM, CaCl2 1 mM, MgCl2 0.5 mM, KCl 4.2 mM, NaCl 146 mM, glucose 5.5 mM and LiCl 50 mM, pH 7.4). Cells are stimulated for 1 h at 37° C., 5% CO2 by addition of the compounds that are diluted in stimulation buffer containing LiCl. Assays are stopped by adding HTRF-conjugates (IP1-d2 and Anti-IP1 cryptate Tb) and lysis buffer, provided by the manufacturer. After an incubation time of 1 h at room temperature plates are measured using an EnVision™, Perkin Elmer. The obtained fluorescence ratios at 665/615 nM are then used to calculate the pEC50 values using Assay Explorer 3.3 Software (Accelrys, Inc.) by interpolation using an IP1 reference curve and subsequent sigmoidal curve fitting allowing for a variable hill slope.
(Time-resolved FRET reads energy transfer from a long-lived donor to a nearby acceptor.)

human GPR40 receptor, sequence (O14842 whole entry): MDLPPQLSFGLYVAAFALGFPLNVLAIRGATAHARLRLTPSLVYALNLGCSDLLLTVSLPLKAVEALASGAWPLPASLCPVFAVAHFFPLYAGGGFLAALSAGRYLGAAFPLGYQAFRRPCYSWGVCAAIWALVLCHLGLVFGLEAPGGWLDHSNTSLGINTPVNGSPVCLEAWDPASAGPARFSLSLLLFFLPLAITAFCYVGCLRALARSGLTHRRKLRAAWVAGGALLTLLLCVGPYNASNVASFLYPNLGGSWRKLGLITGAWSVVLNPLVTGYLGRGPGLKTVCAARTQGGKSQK

For `Cc1cc(C)nc(-c2cc(C)c(-c3ccc(F)c4c3CC[C@H]4Oc3ccc4c(c3)OC[C@H]4CC(=O)O)c(C)c2)c1` [Example 141, {(S)-6-[(R)-4-(2,6-Dimethyl-4-(4,6-dimethyl-pyridin-2-yl)-phenyl)-7-fluoro-indan-1-yloxy]-2,3-dihydro-benzofuran-3-yl}-acetic acid], the concentration for a half-maximal effect (EC50) stood at 3 nM.

Take `Cc1cc(OC2CCS(=O)(=O)NC2)cc(C)c1-c1ccc(F)c2c1CC[C@H]2Oc1ccc2c(c1)OC[C@H]2CC(=O)O` (stereo partly drawn) [Example 41, ((S)-6-{(R)-4-[4-(1,1-Dioxo-1-[1,2]thiazinan-4-yloxy)-2,6-dimethyl-phenyl]-7-fluoro-indan-1-yloxy}-2,3-dihydro-benzofuran-3-yl)-acetic acid]: the EC50 was found to be 18 nM.

In turn, `Cc1cc(OC2CCC(C)(O)C2)cc(C)c1-c1ccc(F)c2c1CC[C@H]2Oc1ccc2c(c1)OC[C@H]2CC(=O)O` (single isomer, unassigned) [Example 78] showed a concentration for a half-maximal effect (EC50) of 4 nM.

`Cc1cc(OCC(C)(C)S(C)(=O)=O)cc(C)c1-c1ccc(F)c2c1CC[C@H]2Oc1ccc2c(c1)OC[C@H]2CC(=O)O` [Example 45, ((S)-6-{(R)-7-Fluoro-4-[4-(2-methanesulfonyl-2-methyl-propoxy)-2,6-dimethyl-phenyl]-indan-1-yloxy}-2,3-dihydro-benzofuran-3-yl)-acetic acid] showed an EC50 of 9 nM.

The compound `Cc1cc(OC2CCS(=O)(=O)N(C)C2)cc(C)c1-c1ccc(F)c2c1CC[C@H]2Oc1ccc2c(c1)OC[C@H]2CC(=O)O` (stereo partly drawn) [Example 42, ((S)-6-{(R)-4-[2,6-Dimethyl-4-(2-methyl-1,1-dioxo-1-[1,2]thiazinan-4-yloxy)-phenyl]-7-fluoro-indan-1-yloxy}-2,3-dihydro-benzofuran-3-yl)-acetic acid] came in with an EC50 of 11 nM.

`COc1ccc(-c2cc(C)c(-c3ccc(F)c4c3CC[C@H]4Oc3ccc4c(c3)OC[C@H]4CC(=O)O)c(C)c2)nc1` [Example 135, {(S)-6-[(R)-4-(2,6-Dimethyl-4-(5-methoxy-pyridin-2-yl)-phenyl)-7-fluoro-indan-1-yloxy]-2,3-dihydro-benzofuran-3-yl}-acetic acid] gave an EC50 of 7 nM.

As to `Cc1cccnc1-c1cc(C)c(-c2ccc(F)c3c2CC[C@H]3Oc2ccc3c(c2)OC[C@H]3CC(=O)O)c(C)c1` [Example 138, {(S)-6-[(R)-4-(2,6-Dimethyl-4-(3-methyl-pyridin-2-yl)-phenyl)-7-fluoro-indan-1-yloxy]-2,3-dihydro-benzofuran-3-yl}-acetic acid], the EC50 turned out to be 9 nM.

For the compound `COc1nccc(-c2cc(C)c(-c3ccc(F)c4c3CC[C@H]4Oc3ccc4c(c3)OC[C@H]4CC(=O)O)c(C)c2)n1` [Example 93], the midpoint of the response, the EC50, lay at 4 nM.

As for `Cc1cc(OC[C@H](C)CS(C)(=O)=O)cc(C)c1-c1ccc(F)c2c1CC[C@H]2Oc1ccc2c(c1)OC[C@H]2CC(=O)O` [Example 37, ((S)-6-{(R)-7-Fluoro-4-[4-((S)-3-methanesulfonyl-2-methyl-propoxy)-2,6-dimethyl-phenyl]-indan-1-yloxy}-2,3-dihydro-benzofuran-3-yl)-acetic acid], the response was half-maximal at 6 nM (EC50).

`Cc1cc(-c2cnc(=O)n(C)c2)cc(C)c1-c1ccc(F)c2c1CC[C@H]2Oc1ccc2c(c1)OC[C@H]2CC(=O)O` [Example 89, 2-((S)-6-((R)-4-(2,6-Dimethyl-4-(1-methyl-2-oxo-1,2-dihydropyrimidin-5-yl)phenyl)-7-fluoro-2,3-dihydro-1H-inden-1-yloxy)-2,3-dihydrobenzofuran-3-yl)acetic acid]: the EC50 came out at 9 nM.

On to `Cc1cc(-c2nnnn2C)cc(C)c1-c1ccc(F)c2c1CC[C@H]2Oc1ccc2c(c1)OC[C@H]2CC(=O)O` [Example 96, 2-((S)-6-((R)-4-(2,6-Dimethyl-4-(1-methyl-1H-tetrazol-5-yl)phenyl)-7-fluoro-2,3-dihydro-1H-inden-1-yloxy)-2,3-dihydrobenzofuran-3-yl)acetic acid], for which the EC50 was determined as 20 nM.

`Cc1cc(-c2c(C)nn(C)c2C)cc(C)c1-c1ccc(F)c2c1CC[C@H]2Oc1ccc2c(c1)OC[C@H]2CC(=O)O` [Example 109, {(S)-6-[(R)-4-(2,6-Dimethyl-4-(1,3,5-trimethyl-pyrazol-4-yl)-phenyl)-7-fluoro-indan-1-yloxy]-2,3-dihydro-benzofuran-3-yl}-acetic acid]: a half-maximal effect (EC50) was put at 8 nM.

With `Cc1ccnc(-c2cc(C)c(-c3ccc(F)c4c3CC[C@H]4Oc3ccc4c(c3)OC[C@H]4CC(=O)O)c(C)c2)c1` [Example 140, {(S)-6-[(R)-4-(2,6-Dimethyl-4-(4-methyl-pyridin-2-yl)-phenyl)-7-fluoro-indan-1-yloxy]-2,3-dihydro-benzofuran-3-yl}-acetic acid], the EC50 worked out at 2 nM.

On to `Cc1cc(-c2cnccn2)cc(C)c1-c1ccc(F)c2c1CC[C@H]2Oc1ccc2c(c1)OC[C@H]2CC(=O)O` [Example 122, {(S)-6-[(R)-4-(2,6-Dimethyl-4-pyrazin-2-yl-phenyl)-7-fluoro-indan-1-yloxy]-2,3-dihydro-benzofuran-3-yl}-acetic acid], for which the response was half-maximal at 2 nM (EC50).

For `Cc1ccc(-c2cc(C)c(-c3ccc(F)c4c3CC[C@H]4Oc3ccc4c(c3)OC[C@H]4CC(=O)O)c(C)c2)nc1` [Example 143, {(S)-6-[(R)-4-(2,6-Dimethyl-4-(5-methyl-pyridin-2-yl)-phenyl)-7-fluoro-indan-1-yloxy]-2,3-dihydro-benzofuran-3-yl}-acetic acid], the EC50 was 3 nM.

Take `Cc1cc(OCC2CCCS(=O)(=O)C2)cc(C)c1-c1ccc(F)c2c1CC[C@H]2Oc1ccc2c(c1)OC[C@H]2CC(=O)O` (stereo partly drawn) [Example 51, ((S)-6-{(R)-4-[4-(1,1-Dioxo-hexahydro-1-thiopyran-3-ylmethoxy)-2,6-dimethyl-phenyl]-7-fluoro-indan-1-yloxy}-2,3-dihydro-benzofuran-3-yl)-acetic acid]: the EC50 was 7 nM.

Consider `Cc1cc(-c2cccnc2)cc(C)c1-c1ccc(F)c2c1CC[C@H]2Oc1ccc2c(c1)OC[C@H]2CC(=O)O` [Example 112, {(S)-6-[(R)-4-(2,6-Dimethyl-4-pyridin-3-yl-phenyl)-7-fluoro-indan-1-yloxy]-2,3-dihydro-benzofuran-3-yl}-acetic acid], for which the EC50 came to 5 nM.

`COc1ccc(-c2cc(C)c(-c3ccc(F)c4c3CC[C@H]4Oc3ccc4c(c3)OC[C@H]4CC(=O)O)c(C)c2)cn1` [Example 126, {(S)-6-[(R)-4-(2,6-Dimethyl-4-(6-methoxy-pyridin-3-yl)-phenyl)-7-fluoro-indan-1-yloxy]-2,3-dihydro-benzofuran-3-yl}-acetic acid] displayed a concentration for a half-maximal effect (EC50) of 6 nM.

`Cc1cc(-c2cc(=O)n(C)cn2)cc(C)c1-c1ccc(F)c2c1CC[C@H]2Oc1ccc2c(c1)OC[C@H]2CC(=O)O` [Example 88, 2-((S)-6-((R)-4-(2,6-Dimethyl-4-(1-methyl-6-oxo-1,6-dihydropyrimidin-4-yl)phenyl)-7-fluoro-2,3-dihydro-1H-inden-1-yloxy)-2,3-dihydrobenzofuran-3-yl)acetic acid]: the midpoint of the response, the EC50, lay at 3 nM.

`O=C(O)C[C@@H]1COc2cc(O[C@@H]3CCc4c(-c5cccnc5N5CCOCC5)ccc(F)c43)ccc21` [Example 128, {(S)-6-[(R)-7-Fluoro-4-(2-morpholin-4-yl-pyridin-3-yl)-indan-1-yloxy]-2,3-dihydro-benzofuran-3-yl}-acetic acid] yielded an EC50 of 288 nM.

`CC(C)(C)COc1ncccc1-c1ccc(F)c2c1CC[C@H]2Oc1ccc2c(c1)OC[C@H]2CC(=O)O` [Example 100] had a half-maximal effective concentration (EC50) of 58 nM.

Regarding `Cc1cn(C)c(-c2cc(C)c(-c3ccc(F)c4c3CC[C@H]4Oc3ccc4c(c3)OC[C@H]4CC(=O)O)c(C)c2)n1` [Example 142, {(S)-6-[(R)-4-(2,6-Dimethyl-4-(1,4-dimethyl-imidazol-2-yl)-phenyl)-7-fluoro-indan-1-yloxy]-2,3-dihydro-benzofuran-3-yl}-acetic acid], the midpoint of the response, the EC50, lay at 16 nM.

In turn, `COc1cc(-c2cc(C)c(-c3ccc(F)c4c3CC[C@H]4Oc3ccc4c(c3)OC[C@H]4CC(=O)O)c(C)c2)ccn1` [Example 116, {(S)-6-[(R)-4-(2,6-Dimethyl-4-(2-methoxy-pyridin-4-yl)-phenyl)-7-fluoro-indan-1-yloxy]-2,3-dihydro-benzofuran-3-yl}-acetic acid] registered an EC50 of 3 nM.

`Cc1cccc(C)c1-c1ncccc1-c1ccc(F)c2c1CC[C@H]2Oc1ccc2c(c1)OC[C@H]2CC(=O)O` [Example 124, {(S)-6-[(R)-4-(2-(2,6-Dimethyl-phenyl)-pyridin-3-yl)-7-fluoro-indan-1-yloxy]-2,3-dihydro-benzofuran-3-yl}-acetic acid] registered an EC50 of 339 nM.

In turn, `Cc1cc(OCC2(O)CCSCC2)cc(C)c1-c1ccc(F)c2c1CC[C@H]2Oc1ccc2c(c1)OC[C@H]2CC(=O)O` [Example 68, 2-((S)-6-((R)-7-Fluoro-4-(4-((4-hydroxytetrahydro-2H-thiopyran-4-yl)methoxy)-2,6-dimethylphenyl)-2,3-dihydro-1H-inden-1-yloxy)-2,3-dihydrobenzofuran-3-yl)acetic acid] yielded a 50% effective concentration (EC50) of 10 nM.

`Cc1cnc(-c2cc(C)c(-c3ccc(F)c4c3CC[C@H]4Oc3ccc4c(c3)OC[C@H]4CC(=O)O)c(C)c2)nc1` [Example 113, {(S)-6-[(R)-4-(2,6-Dimethyl-4-(5-methyl-pyrimidin-2-yl)-phenyl)-7-fluoro-indan-1-yloxy]-2,3-dihydro-benzofuran-3-yl}-acetic acid] yielded an EC50 of 1 nM.

As usually defined, the EC50 is the concentration at which the effect is half-maximal.
